Patent US20060106005A1, “Funtionalised metallocenes as anticancer drugs” (priority 2003, published 2006)
Read-outs that look alike come from different tables or passages of the source.

Assays:
MCF-7 = assay: Sensitivity of cell lines to Cisplatin and Ti compounds (MCF-7); type: cell-based; conditions: for relative sensitivity of cell lines: MCF-7, relative to LoVo
LoVo = assay: Sensitivity of cell lines to Cisplatin and Ti compounds (LoVo); type: cell-based; conditions: for relative sensitivity of cell lines: LoVo (reference line = 1)
LS 174T = assay: Sensitivity of cell lines to Cisplatin and Ti compounds (LS 174T); type: cell-based; conditions: for relative sensitivity of cell lines: LS-174T, relative to LoVo
A2780 = assay: Sensitivity of cell lines to Cisplatin and Ti compounds (A2780); type: cell-based; conditions: for relative sensitivity of cell lines: A2780, relative to LoVo; for DIFFERENTIAL: IC50 of 2 relative to Cisplatin
A2780-cis = assay: Anti-proliferative effect on cisplatin-resistant A2780-cis; type: cell-based; conditions: for relative sensitivity of A2780 and A2780cis cell lines: relative to A2780 144 hr; for relative sensitivity of cell lines: relative to LoVo; for DIFFERENTIAL: IC50 of 2 relative to Cisplatin
Excerpt: In order to determine whether these types of complexes overcome platinum resistance in vitro, the anti-proliferative effects of 2 on cisplatin-resistant […] were examined (see Table 3).

LX1 = conditions: LX1, histologically unclassified lung tumour; cited from earlier work
[1] = tested on: xenografted tumours of the colon, head, breast, rectum, lung and stomach; conditions: in vivo; cited from earlier work
[2] = tested on: certain cancer cell lines; conditions: compared to Cp2TiCl2
[3] = A2780 (24 hour), read-out: IC50
[4] = A2780, exposure time 24 hr, relative to A2780 144 hr
[5] = A2780, exposure time 144 hr (reference = 1)
[6] = A2780-cis (24 hour), read-out: IC50

N.N.[Cl][Pt][Cl] [Cisplatin, cisplatin, reference compound]
relative sensitivity of cell lines (MCF-7): 24.3
IC50 (LoVo; LoVo): 0.37 µM
relative sensitivity of cell lines (LoVo): 1
IC50 (LS 174T; LS 174T): 0.5 µM
relative sensitivity of cell lines (LS 174T): 1.35
IC50 (A2780; [3]): 1 µM
relative sensitivity of A2780 and A2780cis cell lines (A2780; [4]): 1.22
relative sensitivity of A2780 and A2780cis cell lines (A2780; [5]): 1
relative sensitivity of cell lines (A2780): 2.2
IC50 (A2780; A2780, read-out: IC50): 0.82 µM
IC50 (A2780-cis; [6]): 5.4 µM
IC50 (A2780-cis; A2780-cis, read-out: IC50): 2.1 µM
relative sensitivity of A2780 and A2780cis cell lines (A2780-cis; A2780cis, exposure time 24 hr): 6.59
relative sensitivity of A2780 and A2780cis cell lines (A2780-cis; A2780cis, exposure time 144 hr): 2.56
relative sensitivity of cell lines (A2780-cis; A2780cis): 5.7
resistance relative to 2 (times more resistant) (A2780-cis; cisplatin-resistant A2780, after 144 hours): 3 times

C1=C[CH]([Ti+2][CH]2C=CC=C2)C=C1.[Cl-].[Cl-].[Ti+2].c1cc[cH-]c1.c1cc[cH-]c1 [Cp2TiCl2, titanocene (bis-cyclopentadienyl titanium)dichloride]
anti-tumour activity against LX1 (LX1): no significant anti-tumour activity
sensitivity of xenografted tumours [1]: significantly sensitive

[Cl-].[Cl-].[V+4].c1cc[cH-]c1.c1cc[cH-]c1 [Cp2VCl2, vanadocene(bis-cyclopentadienyl vanadium)dichloride]
anti-tumour activity against LX1 (LX1): significant activity

[Cp(CH2)2NH(CH2)5]2TiCl2.2HCl [compound 2]
IC50 (MCF-7; MCF-7): 62 µM
relative sensitivity of cell lines (MCF-7): 1
DIFFERENTIAL (MCF-7; MCF-7, IC50 of 2 relative to Cisplatin): 6.9 µM
IC50 (LoVo; LoVo): 62 µM
relative sensitivity of cell lines (LoVo): 1
DIFFERENTIAL (LoVo; LoVo, IC50 of 2 relative to Cisplatin): 167.6 µM
IC50 (LS 174T; LS 174T): 36 µM
DIFFERENTIAL (LS 174T; LS 174T, IC50 of 2 relative to Cisplatin): 72 µM
relative sensitivity of cell lines (LS 174T): 0.58
DIFFERENTIAL (A2780; A2780 (24 hour)): 168 µM
IC50 (A2780; [3]): 168 µM
IC50 (A2780; A2780, 7 days, read-out: IC50 (7 days)): 99.1 µM
relative sensitivity of A2780 and A2780cis cell lines (A2780; [4]): 5.42
relative sensitivity of A2780 and A2780cis cell lines (A2780; [5]): 1
relative sensitivity of cell lines (A2780): 0.5
DIFFERENTIAL (A2780; A2780): 37.8 µM
IC50 (A2780; A2780, read-out: IC50): 31 µM
DIFFERENTIAL (A2780-cis; A2780-cis (24 hour)): 28.5 µM
IC50 (A2780-cis; [6]): 154 µM
DIFFERENTIAL (A2780-cis; A2780-cis): 13.3 µM
IC50 (A2780-cis; A2780-cis, read-out: IC50): 28 µM
IC50 (A2780-cis; A2780cis, 7 days, read-out: IC50 (7 days)): 4.3 µM
relative sensitivity of A2780 and A2780cis cell lines (A2780-cis; A2780cis, exposure time 24 hr): 4.97
relative sensitivity of A2780 and A2780cis cell lines (A2780-cis; A2780cis, exposure time 144 hr): 0.90
relative sensitivity of cell lines (A2780-cis; A2780cis): 0.45
potency relative to Cp2TiCl2 (times more potent) [2]: around 10 times
